{"source": "ChEMBL document CHEMBL5500364", "about": "“Design, synthesis, and biological evaluation of some 2-(3-oxo-5,6-diphenyl-1,2,4-triazin-2(3H)-yl)-N-phenylacetamide hybrids as MTDLs for Alzheimer's disease therapy” (Eur J Med Chem, 2024)", "key": {"[1]": {"experiment": "Toxicity in wildtype Oregon R-positive Drosophila assessed as reduction in eclosion at 100 to 200 uM pretreated for 5 days and measured for 15 days", "settings": "480 h, dose 100-200 µM, time 20 day"}, "[2]": {"test_system": "Rattus norvegicus", "experiment": "Reversal of amyloid beta (1 to 42 residues) induced cognitive impairment in Wistar rat assessed as decrease in BACE-1 protein level at 10 mg/kg, po pretreated with amyloid beta for 7 days followed by compound administration for 9 days and measured after 5 days by Western blot analysis", "format": "functional, organism-based", "settings": "time 14.0 day"}, "[3]": {"experiment": "Permeability of compound in PBS at pH 7.4 incubated for 18 hrs by PAMPA-BBB assay"}, "[4]": {"test_system": "Rattus norvegicus", "experiment": "Reversal of amyloid beta (1 to 42 residues) induced cognitive impairment in Wistar rat assessed as decrease in BACE-1 level in DG region of hippocampus at 10 mg/kg, po pretreated with amyloid beta for 7 days followed by compound administration for 9 days and measured after 5 days by immuno histochemical analysis", "format": "functional, organism-based", "settings": "time 14.0 day"}, "[5]": {"experiment": "Acute toxicity in Wistar rat assessed as toxicity signs at 500 to 1000 mg/kg, po administered for 14 days", "format": "organism-based", "settings": "in vivo, 336 h, dose 500-1000 mg/kg, time 14 day"}, "[6]": {"test_system": "Hippocampus", "experiment": "Reversal of scopolamine-induced oxidative stress in male Wistar rat brain hippocampus assessed as increase in catalase level preadministered orally with compound for 30 mins starting from 7 th day trail followed by scopolamine administration and measured after 5 mins by spectrophotometric analysis", "format": "functional, tissue-based", "settings": "dose 2.5-10 mg/kg, route po, time 35.0 min"}, "[7]": {"target": "Amyloid-beta precursor protein (Homo sapiens) (UniProt P05067)", "sequence (P05067 whole entry)": "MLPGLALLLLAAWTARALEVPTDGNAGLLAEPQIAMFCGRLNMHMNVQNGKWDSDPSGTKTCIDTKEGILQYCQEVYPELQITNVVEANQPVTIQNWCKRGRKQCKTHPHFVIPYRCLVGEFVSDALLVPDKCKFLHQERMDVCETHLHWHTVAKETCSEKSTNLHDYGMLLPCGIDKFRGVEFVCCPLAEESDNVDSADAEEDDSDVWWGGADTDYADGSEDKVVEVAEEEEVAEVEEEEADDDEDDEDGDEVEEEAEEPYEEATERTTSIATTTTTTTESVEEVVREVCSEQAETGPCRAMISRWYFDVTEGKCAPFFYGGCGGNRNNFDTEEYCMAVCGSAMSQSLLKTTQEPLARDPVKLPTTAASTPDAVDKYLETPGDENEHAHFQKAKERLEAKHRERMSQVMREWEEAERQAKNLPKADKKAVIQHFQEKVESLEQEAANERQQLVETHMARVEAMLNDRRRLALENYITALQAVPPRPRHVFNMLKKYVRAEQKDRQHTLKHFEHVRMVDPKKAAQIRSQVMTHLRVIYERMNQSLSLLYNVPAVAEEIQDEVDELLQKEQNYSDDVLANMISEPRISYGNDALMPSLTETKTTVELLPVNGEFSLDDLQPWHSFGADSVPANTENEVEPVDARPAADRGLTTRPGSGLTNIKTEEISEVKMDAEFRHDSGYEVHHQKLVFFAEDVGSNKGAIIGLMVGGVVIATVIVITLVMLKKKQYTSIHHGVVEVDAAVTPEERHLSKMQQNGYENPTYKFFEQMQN", "experiment": "Inhibition of human AchE-induced amyloid beta (1 to 42) (unknown origin) aggregation at 5 to 20 uM incubated for 48 hrs by Thioflavin T fluorescence assay relative to control", "settings": "dose 5-20 µM"}, "[8]": {"target": "Acetylcholinesterase (Homo sapiens, UniProt P22303)", "sequence (P22303 whole entry)": "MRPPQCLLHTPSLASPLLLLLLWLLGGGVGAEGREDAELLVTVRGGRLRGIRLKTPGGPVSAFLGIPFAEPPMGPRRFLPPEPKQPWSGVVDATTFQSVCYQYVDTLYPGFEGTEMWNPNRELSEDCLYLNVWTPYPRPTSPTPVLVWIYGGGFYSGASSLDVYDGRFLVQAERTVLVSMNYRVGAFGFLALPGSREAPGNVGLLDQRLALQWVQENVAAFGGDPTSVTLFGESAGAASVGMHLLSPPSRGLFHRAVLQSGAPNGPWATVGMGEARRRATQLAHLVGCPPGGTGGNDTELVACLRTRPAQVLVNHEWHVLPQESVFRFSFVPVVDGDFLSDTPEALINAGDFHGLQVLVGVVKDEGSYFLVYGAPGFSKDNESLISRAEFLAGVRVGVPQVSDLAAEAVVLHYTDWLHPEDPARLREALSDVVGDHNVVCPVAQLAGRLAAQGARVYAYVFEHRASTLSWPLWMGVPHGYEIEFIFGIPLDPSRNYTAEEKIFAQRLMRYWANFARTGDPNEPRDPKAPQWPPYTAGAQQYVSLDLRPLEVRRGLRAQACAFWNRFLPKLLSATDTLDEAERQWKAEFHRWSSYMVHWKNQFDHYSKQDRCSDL", "experiment": "Mixed type non-competitive inhibition of human erythrocyte AChE using acetylthiocholine iodide as substrate assessed as dissociation constant by dixon plot analysis"}, "[9]": {"test_system": "Rattus norvegicus", "experiment": "Reversal of amyloid beta (1 to 42 residues) induced cognitive impairment in Wistar rat assessed as decrease in BACE-1 level in CA3 region of hippocampus at 10 mg/kg, po pretreated with amyloid beta for 7 days followed by compound administration for 9 days and measured after 5 days by immuno histochemical analysis", "format": "functional, organism-based", "settings": "time 14.0 day"}, "[10]": {"target": "Amyloid-beta precursor protein (Homo sapiens) (UniProt P05067)", "experiment": "Inhibition of amyloid beta (1 to 42) (unknown origin) aggregation assessed as reduction in size of amyloid-beta aggregates measured within 48 hrs by SEM imaging analysis"}, "[11]": {"experiment": "Acute toxicity in Wistar rat assessed as effect on kupffer cells appearance in liver at 500 to 1000 mg/kg, po administered for 14 days by histopathological analysis", "format": "organism-based", "settings": "in vivo, 336 h, dose 500-1000 mg/kg, time 14 day"}, "[12]": {"experiment": "Acute toxicity in Wistar rat assessed as body weight loss at 500 to 1000 mg/kg, po measured for 2 to 3 days relative to control", "format": "organism-based", "settings": "in vivo, dose lower 500 mg/kg, time lower 2 day, dose upper 1000 mg/kg, time upper 3 day"}, "[13]": {"experiment": "Acute toxicity in Wistar rat assessed as effect on DCT shape at 500 to 1000 mg/kg, po administered for 14 days by histopathological analysis", "format": "organism-based", "settings": "in vivo, 336 h, dose 500-1000 mg/kg, time 14 day"}, "[14]": {"test_system": "Hippocampus", "experiment": "Reversal of scopolamine-induced oxidative stress in male Wistar rat brain hippocampus assessed as increase in SOD level at 2.5 to 10 mg/kg, po preadministered with compound for 30 mins starting from 7 th day trail followed by scopolamine administration and measured after 5 mins […]", "format": "functional, organism-based", "settings": "dose 2.5-10 mg/kg, time 35.0 min"}, "[15]": {"experiment": "Acute toxicity in Wistar rat assessed as toxicity symptoms at 500 to 1000 mg/kg, po administered for 14 days", "format": "organism-based", "settings": "in vivo, 336 h, dose 500-1000 mg/kg, time 14 day"}, "[16]": {"test_system": "Drosophila", "experiment": "Neuroprotective activity against ey-GAL4>UAS-amyloid beta (1 to 42) induced cellular toxicity in Oregon R-positive Drosophila model assessed as rescue of ommatidial patterns in eye at 10 to 20 uM by scanning electron microscopic imaging analysis", "format": "functional, organism-based", "settings": "dose 10-20 µM"}, "[17]": {"experiment": "Acute toxicity in Wistar rat assessed as effect on cardiac muscle at 500 to 1000 mg/kg, po administered for 14 days by histopathological analysis", "format": "organism-based", "settings": "in vivo, 336 h, dose 500-1000 mg/kg, time 14 day"}, "[18]": {"test_system": "SH-SY5Y", "experiment": "Neuroprotective activity against amyloid-beta(1 to 42) induced oxidative stress in differentiated human SH-SY5Y cells assessed as increase in cell viability at 40 uM preincubated with amyloid-beta (1 to 42 ) for 24 hrs followed by compound addition and measured after 72 hrs by MTT assay relative to control", "format": "functional"}, "[19]": {"test_system": "Rattus norvegicus", "experiment": "Reversal of amyloid beta (1 to 42 residues) induced cognitive impairment in Wistar rat assessed as reduction in focal gliosis in cerebral cortex at 2.5 to 10 mg/kg, po pretreated with amyloid beta for 7 days followed by compound administration for 9 days and measured after 5 days by Nissl's staining based analysis", "format": "functional, organism-based", "settings": "dose 2.5-10 mg/kg, time 14.0 day"}, "[20]": {"test_system": "Rattus norvegicus", "experiment": "Reversal of amyloid beta (1 to 42 residues) induced cognitive impairment in Wistar rat assessed as decrease in Tau protein level at 10 mg/kg, po pretreated with amyloid beta for 7 days followed by compound administration for 9 days and measured after 5 days by Western blot analysis", "format": "functional, organism-based", "settings": "time 14.0 day"}, "[21]": {"test_system": "Drosophila", "experiment": "Neuroprotective activity in ey-GAL4>UAS-amyloid beta (1 to 42) induced cellular toxicity in Oregon R-positive Drosophila model assessed as rescue in eye phenotype at 10 uM by Stereo zoom microscopic imaging analysis relative to control", "format": "functional"}, "[22]": {"experiment": "Acute toxicity in Wistar rat assessed as effect on central vein appearance in liver at 500 to 1000 mg/kg, po administered for 14 days by histopathological analysis", "format": "organism-based", "settings": "in vivo, 336 h, dose 500-1000 mg/kg, time 14 day"}, "[23]": {"experiment": "Toxicity in wildtype Oregon R-positive Drosophila assessed as eclosion at 10 uM pretreated for 5 days and measured for 15 days relative to control", "settings": "480 h, time 20 day"}, "[24]": {"experiment": "Acute toxicity in Wistar rat assessed as maximum tolerated dose administered orally for 14 days", "settings": "in vivo, route po, time 14 day"}, "[25]": {"target": "Amyloid-beta precursor protein (Homo sapiens) (UniProt P05067)", "experiment": "Inhibition of amyloid beta (1 to 42) (unknown origin) self aggregation ar 5 to 20 uM incubated for 48 hrs by Thioflavin T fluorescence assay relative to control", "settings": "dose 5-20 µM"}, "[26]": {"test_system": "Rattus norvegicus", "experiment": "Reversal of amyloid beta (1 to 42 residues) induced cognitive impairment in Wistar rat assessed as decrease in alpha-synuclein protein level at 10 mg/kg, po pretreated with amyloid beta for 7 days followed by compound administration for 9 days and measured after 5 days by Western blot analysis", "format": "functional, organism-based", "settings": "time 14.0 day"}, "[27]": {"target": "Beta-secretase 1 (Homo sapiens, UniProt P56817)", "sequence (P56817 whole entry, the tested form may be a part)": "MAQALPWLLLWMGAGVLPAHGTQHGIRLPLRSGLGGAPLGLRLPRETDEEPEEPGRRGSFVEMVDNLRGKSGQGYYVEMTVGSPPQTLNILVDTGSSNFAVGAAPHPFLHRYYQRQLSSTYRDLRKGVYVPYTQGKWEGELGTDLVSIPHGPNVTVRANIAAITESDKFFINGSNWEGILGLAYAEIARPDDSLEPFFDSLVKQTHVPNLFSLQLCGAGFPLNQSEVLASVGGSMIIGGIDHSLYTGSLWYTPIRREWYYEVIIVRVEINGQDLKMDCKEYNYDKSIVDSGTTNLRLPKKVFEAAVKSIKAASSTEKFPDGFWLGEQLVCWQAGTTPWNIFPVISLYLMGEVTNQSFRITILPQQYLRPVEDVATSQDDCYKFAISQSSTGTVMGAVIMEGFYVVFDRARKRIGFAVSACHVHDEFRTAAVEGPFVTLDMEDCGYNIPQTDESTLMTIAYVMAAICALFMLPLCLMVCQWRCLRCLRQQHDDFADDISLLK", "experiment": "Inhibition of human BACE-1 using (7-Methoxycoumarin-4-acetyl-[Asn670, Leu671]-Amyloid beta/A4 precursor protein 770 fragments 667-676- (2, 4-dinitrophenyl) Lys-Arg-Arg amide trifluoroacetate salt as substrate incubated for 2 hrs by FRET-based analysis"}, "[28]": {"test_system": "Rattus norvegicus", "experiment": "Reversal of amyloid beta (1 to 42 residues) induced cognitive impairment in Wistar rat assessed as decrease in APP protein level at 10 mg/kg, po pretreated with amyloid beta for 7 days followed by compound administration for 9 days and measured after 5 days by Western blot analysis", "format": "functional, organism-based", "settings": "time 14.0 day"}, "[29]": {"test_system": "Rattus norvegicus", "experiment": "Reversal of amyloid beta (1 to 42 residues) induced cognitive impairment in Wistar rat assessed as decrease in amyloid level in CA1 region of hippocampus at 10 mg/kg, po pretreated with amyloid beta for 7 days followed by compound administration for 9 days and measured after 5 days by immuno histochemical analysis", "format": "functional, organism-based", "settings": "time 14.0 day"}}, "note": "Activity calls are given as the source filed them. The calls are words filed in the database; no cut-off is given here."}
{"smiles": "COc1cc(NC(=O)Cn2nc(-c3ccccc3)c(-c3ccccc3)nc2=O)cc(OC)c1", "values": [{"measurement": "Activity", "setting": "[1]", "value": "Toxic"}, {"measurement": "Activity", "setting": "[2]", "value": "Active"}, {"measurement": "Papp at 18 h", "setting": "[3]", "value": 5.64, "unit": "×10⁻⁶ cm/s"}, {"measurement": "Activity", "setting": "[4]", "value": "Active"}, {"measurement": "Activity", "setting": "[5]", "value": "Non-Toxic"}, {"measurement": "Activity", "setting": "[6]", "value": "Dose-Dependent Effect"}, {"measurement": "inhibition", "setting": "[7]", "value": 41.3, "unit": "%"}, {"measurement": "Kd", "setting": "[8]", "value": 412, "unit": "nM"}, {"measurement": "Activity", "setting": "[9]", "value": "Active"}, {"measurement": "inhibition", "setting": "[10]", "value": "Active"}, {"measurement": "Activity", "setting": "[11]", "value": "Non-Toxic"}, {"measurement": "Activity", "setting": "[12]", "value": 7, "unit": "%"}, {"measurement": "Activity", "setting": "[13]", "value": "Non-Toxic"}, {"measurement": "Activity", "setting": "[14]", "value": "Active"}, {"measurement": "Activity", "setting": "[15]", "value": "Non-Toxic"}, {"measurement": "Activity", "setting": "[16]", "value": "Active"}, {"measurement": "Activity", "setting": "[17]", "value": "Non-Toxic"}, {"measurement": "Activity", "setting": "[18]", "value": 82, "unit": "%"}, {"measurement": "Activity", "setting": "[19]", "value": "Active"}, {"measurement": "Activity", "setting": "[20]", "value": "Active"}, {"measurement": "Activity", "setting": "[21]", "value": 21, "unit": "%"}, {"measurement": "Activity", "setting": "[22]", "value": "Non-Toxic"}, {"measurement": "Activity", "setting": "[23]", "value": 85, "unit": "%"}, {"measurement": "MTD at 336 h", "setting": "[24]", "value": 1000, "unit": "mg/kg"}, {"measurement": "inhibition", "setting": "[25]", "value": 23.6, "unit": "%"}, {"measurement": "Activity", "setting": "[26]", "value": "Active"}, {"measurement": "IC50", "setting": "[27]", "value": 542, "unit": "nM"}, {"measurement": "Activity", "setting": "[28]", "value": "Active"}, {"measurement": "Activity", "setting": "[29]", "value": "Active"}]}
